Laboratory results as given in patent publication US20180009797A1, “AZA-ARYL 1H-PYRAZOL-1-YL BENZENE SULFONAMIDES” (ChemoCentryx, Inc., priority 2016, published 2018).

These compounds were tested against T1, CCR(9) (Homo sapiens, UniProt P51686) (assay: serum chemotaxis (serum migration) assay, MOLT-4 cells in human serum, TECK). Conditions: read-out: A2.
T1 construct: CCR(9)-expressing cells such as T cell line MOLT-4 cells; host or cells: MOLT-4 T cell line
T1 sequence (P51686 1-369): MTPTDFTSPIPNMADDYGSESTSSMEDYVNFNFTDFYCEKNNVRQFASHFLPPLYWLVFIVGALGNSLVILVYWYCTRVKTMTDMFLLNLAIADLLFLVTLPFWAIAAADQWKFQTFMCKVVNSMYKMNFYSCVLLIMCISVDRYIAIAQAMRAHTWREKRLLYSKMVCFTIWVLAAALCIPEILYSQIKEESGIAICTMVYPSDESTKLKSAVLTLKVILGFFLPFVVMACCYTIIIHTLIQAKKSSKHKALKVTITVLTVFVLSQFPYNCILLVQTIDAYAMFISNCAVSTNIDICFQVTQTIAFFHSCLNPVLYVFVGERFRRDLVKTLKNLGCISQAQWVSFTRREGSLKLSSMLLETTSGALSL
Assay type: cell-based
Protocol: In vitro cell chemotaxis assays can be performed (but are not limited to this format) using the 96-well microchamber (called ChemoTX™). The ChemoTX™ system is well known to those skilled in the art as a type of chemotactic/cell migration instrument. In this assay, CCR(9)-expressing cells (such as MOLT-4) are first incubated with a compound of interest, such as a possible CCR(9) antagonist at increasing concentrations. Typically, fifty thousand cells per well are used, but the amount can range from 10^3-10^6 cells per well. The chemokine ligand (for example, CCR(9) ligand TECK, typically at 50 nM (but can range from 5-100 nM)), is placed at the lower chamber and the migration apparatus is assembled. Twenty microliters of test compound-treated cells are then placed onto the membrane. Migration is allowed to take place at 37° C. for a period of time, typically 2.5 hours for CCR(9). At the end of the incubation, the number of cells that migrated across the membrane into the lower chamber is then quantified. The efficacy of a compound as an inhibitor of chemokine-mediated cell migration can be calculated as an IC50 (the concentration needed to reduce cell migration by 50%) or IC90 (for 90% inhibition).
MOLT-4 cells were obtained from the American Type Culture Collection (Manassas, Va.) and cultured in RPMI tissue culture medium supplemented with 10% fetal calf serum (FCS) in a humidified 5% CO2 incubator at 37° C. Recombinant human chemokine proteins TECK was obtained from R&D Systems (Minneapolis, Minn.). ChemoTX® chemotaxis microchambers were purchased from Neuro Probe (Gaithersburg, Md.). CyQUANT® cell proliferation kits were purchased from Molecular Probes (Eugene, Oreg.). Calcium indicator dye Fluo-4 AM was purchased from Molecular Devices (Mountain View, Calif.).
A serum chemotaxis assay was used to determine the efficacy of potential receptor antagonists at blocking the migration mediated through chemokine receptors, such as CCR(9). This assay was performed using the ChemoTX® microchamber system with a 5-μm pore-sized polycarbonate membrane. MOLT-4 cells were collected by centrifugation at 400×g at room temperature, then suspended at 50 million/ml in human serum, containing 50 mM HEPES (final pH of 7.2). The compound being tested or an equivalent volume of its solvent (DMSO) was then added to the cell/serum mixture at a final DMSO concentration of 0.125% (v/v), and this mixture was then incubated together at 37° C. for one hour. Separately, recombinant human TECK was diluted with chemotaxis buffer (HBSS+0.1% BSA), generally spanning a range from 0.1 nM to 500 nM, after which 29 μl of diluted chemokine was placed in the lower wells of the ChemoTX® plate. The 5-μm (pore size) polycarbonate membrane was placed onto the plate, and 20 μL of the cell/compound mixture was transferred onto each well of the membrane. The plates were incubated at 37° C. for 90 minutes, after which the polycarbonate membranes were removed and 5 μl of the DNA-intercalating agent CyQUANT (Invitrogen, Carlsbad, Calif.) was added to the lower wells. The amount of fluorescence, corresponding to the number of migrated cells, was measured using a Spectrafluor Plus plate reader (TECAN, San Jose, Calif.).
The A2 values were calculated from the following equation, comparing the efficacy of the test compound with that of the DMSO-only control at equi-active chemokine levels:
Log(A2)=log [drug(M)]−log [(A′/A)−1]
where A reflects the potency of the agonist in the absence of antagonist and […] reflects the potency of the agonist in the presence of antagonist at a given concentration of drug ([drug(M)]).

First: Cc1cc(NS(=O)(=O)c2ccc(C(C)(C)C)cc2)n(-c2cccc3cnccc23)n1
Second: Cc1cc(NS(=O)(=O)c2ccc(C(C)(C)C)cc2)n(-c2cccc3c[n+]([O-])ccc23)n1
The EC50 of the first is lower: 501 to 2500 nM for the first, > 2500 nM for the second. The first is the more potent here.

Cc1ccc2c(-n3nc(C)cc3NS(=O)(=O)c3ccc(C(C)(C)C)cc3)cccc2n1 and Cc1cc(NS(=O)(=O)c2ccc(C(C)(C)C)cc2)n(-c2cccc3nc(N)ccc23)n1 cannot be ordered by EC50: < 500 nM for the first, < 500 nM for the second.

Cc1cc(NS(=O)(=O)c2ccc(C(C)C)cc2)n(-c2cccc3ncccc23)n1 and CC(C)c1ccc(S(=O)(=O)Nc2cc(C(F)F)nn2-c2cccc3ncccc23)cc1 fall in the same range of EC50: 501 to 2500 nM for the first, 501 to 2500 nM for the second.

First: Cc1cc(NS(=O)(=O)c2ccc(OC(F)(F)F)cc2)n(-c2cccc3ncccc23)n1
Second: Cc1cc(NS(=O)(=O)c2ccc(C(C)(C)C)cc2)n(-c2cccc3ncccc23)n1
The EC50 of the first is higher: 501 to 2500 nM for the first, < 500 nM for the second.

Compared with CCC(C)(C)c1ccc(S(=O)(=O)Nc2cc(C)nn2-c2cccc3ncccc23)cc1, CC(C)(C)c1ccc(S(=O)(=O)Nc2cc(CF)nn2-c2cccc3ncccc23)cc1 is lower in EC50: 501 to 2500 nM for the first, < 500 nM for the second.

Compared with CC(C)(C)c1ccc(S(=O)(=O)Nc2cc(C#N)nn2-c2cccc3ncccc23)cc1, CC(C)(C)c1ccc(S(=O)(=O)Nc2cc(C(F)F)nn2-c2cccc3ncccc23)cc1 is lower in EC50: 501 to 2500 nM for the first, < 500 nM for the second. The second is the more potent here.

Going from CC(C)(C)c1ccc(S(=O)(=O)Nc2ccnn2-c2cccc3ncccc23)cc1 to COCc1cc(NS(=O)(=O)c2ccc(C(C)(C)C)cc2)n(-c2cccc3ncccc23)n1, the EC50 falls from > 2500 nM to < 500 nM.

First: CC(C)Oc1ccc(S(=O)(=O)Nc2cc(CF)nn2-c2cccc3ncccc23)cc1
Second: CC(C)Oc1ccc(S(=O)(=O)Nc2cc(C(F)F)nn2-c2cccc3ncccc23)cc1
The EC50 of the first is higher: 501 to 2500 nM for the first, < 500 nM for the second. The second is the more potent here.

Cc1cc(NS(=O)(=O)c2ccc(C(C)(C)C)cc2)n(-c2nccc3ccccc23)n1 and Cc1cc(NS(=O)(=O)c2ccc(C(C)(C)C)cc2)n(-c2nncc3ccccc23)n1 fall in the same range of EC50: 501 to 2500 nM for the first, 501 to 2500 nM for the second.

COc1ccc(-n2nc(C)cc2NS(=O)(=O)c2ccc(C(C)(C)C)c(F)c2)c2cccnc12 and Cc1cc(NS(=O)(=O)c2ccc(C(C)(C)C)c(F)c2)n(-c2ccc(Br)c3ncccc23)n1 cannot be ordered by EC50: < 500 nM for the first, < 500 nM for the second.

Cc1cc(NS(=O)(=O)c2ccc(OC(C)C)cc2)n(-c2cccc3cnccc23)n1 and CC(C)Oc1ccc(S(=O)(=O)Nc2cc(C(F)(F)F)nn2-c2cccc3cnccc23)cc1 fall in the same range of EC50: 501 to 2500 nM for the first, 501 to 2500 nM for the second.

CC(C)c1ccc(S(=O)(=O)Nc2cc(C(F)(F)F)nn2-c2cccc3cnccc23)cc1 and Cc1cc(NS(=O)(=O)c2ccc(C(C)(C)C)cc2)n(-c2cccc3c(N)nccc23)n1 fall in the same range of EC50: 501 to 2500 nM for the first, 501 to 2500 nM for the second.

First: Cc1cc(NS(=O)(=O)c2ccc(C(C)(C)C)cc2)n(-c2ccc(Cl)c3ncccc23)n1
Second: Cc1cc(NS(=O)(=O)c2ccc(C(C)(C)C)cc2)n(-c2ccc(Br)c3ncccc23)n1
The EC50 of the first is lower: < 500 nM for the first, 501 to 2500 nM for the second.

Cc1cc(NS(=O)(=O)c2ccc(C(C)(C)C)cc2F)n(-c2cccc3ncccc23)n1 and Cc1cc(NS(=O)(=O)c2ccc(C(C)(C)C)c(Cl)c2)n(-c2cccc3ncccc23)n1 fall in the same range of EC50: 501 to 2500 nM for the first, 501 to 2500 nM for the second.

First: Cc1cc(NS(=O)(=O)c2ccc(C(C)(C)C)cc2)n(-c2cccc3c2ccc[n+]3[O-])n1
Second: Cc1cc(NS(=O)(=O)c2ccc(C(C)(C)C)cc2)n(-c2ccc(N)c3ncccc23)n1
The EC50 of the first is higher: 501 to 2500 nM for the first, < 500 nM for the second. The second is the more potent here.

Compared with Cc1cc(NS(=O)(=O)c2cc(F)c(C(C)(C)C)c(F)c2)n(-c2cccc3ncccc23)n1, Cc1cc(NS(=O)(=O)c2ccc(OC(C)C)c(F)c2)n(-c2cccc3ncccc23)n1 is higher in EC50: < 500 nM for the first, 501 to 2500 nM for the second. The first is the more potent here.

Compared with CCOc1ccc(-n2nc(C)cc2NS(=O)(=O)c2ccc(C(C)(C)C)cc2)c2cccnc12, COc1ccc(-n2nc(C)cc2NS(=O)(=O)c2ccc(C(C)(C)C)cc2)c2cccnc12 is lower in EC50: 501 to 2500 nM for the first, < 500 nM for the second. The second is the more potent here.

Cc1cc(-n2nc(C)cc2NS(=O)(=O)c2ccc(C(C)(C)C)cc2)c2cccnc2c1 and Cc1cc(NS(=O)(=O)c2ccc(C(C)(C)C)cc2)n(-c2ccc(C#N)c3ncccc23)n1 fall in the same range of EC50: 501 to 2500 nM for the first, 501 to 2500 nM for the second.

Cc1cc(NS(=O)(=O)c2ccc(C(C)(C)C)c(F)c2)n(-c2ccc(C#N)c3ncccc23)n1 was tested, and the EC50 was < 500 nM.
